Experimental data taken from patent US8318704B2, “Modulation of neural stem cells and neural progenitor cells” (NeuroNova AB, priority 2002, dated 2012).
pEC50: −log10 of the molar value.

Columns and labels:
[1] = system: adult mouse NSC; test: Intracellular ATP assay (cell number) in neurosphere-derived NSC; type: cell-based; conditions: for intracellular ATP levels, and hence NSC number, factor alone: S1P 100 nM or EGF 0.1 nM alone, 3 days (FIG. 8); for intracellular ATP levels, and hence cell number, relative to control: 3 days
Procedure: (§1) The anterior lateral wall of the lateral ventricle of 5-6 week old mice was enzymatically dissociated in 0.8 mg/ml hyaluronidase and 0.5 mg/ml trypsin in DMEM containing 4.5 mg/ml glucose and 80 units/ml DNase at 37° C. for 20 min. The cells were gently triturated and mixed with three volumes of Neurosphere medium (DMEM/F12, B27 supplement, 12.5 mM HEPES pH7.4) containing 20 ng/ml EGF (unless otherwise stated), 100 units/ml penicillin and 100 μg/ml streptomycin. After passing through a 70 μm strainer, the cells were pelleted at 160×g for 5 min. The supernatant was subsequently removed and the cells resuspended in Neurosphere medium supplemented as above, plated out in culture dishes and incubated at 37° C. Neurospheres were ready to be split approximately 7 days after plating.
(§2) To split neurosphere cultures, neurospheres were collected by centrifugation at 160×g for 5 min. The neurospheres were resuspended in 0.5 ml Trypsin/EDTA in HBSS (1×), incubated at 37° C. for 2 min and triturated gently to aid dissociation. Following a further 3 min incubation at 37° C. and trituration, 3 volumes of ice cold NSPH-media-EGF were added to stop further trypsin activity. The cells were pelleted at 220×g for 4 min, resuspended in fresh Neurosphere medium supplemented with 20 ng/ml EGF and 1 nM bFGF plated out and incubated at 37° C.
Mouse neurospheres, cultured as described above, from passage 2, were seeded in DMEM/F12 supplemented with B27 into a 96-well plate as single cells (10000 cells/well) to the substances to be measured were added at the concentrations indicated. After 3 days incubation, intracellular ATP was measured using the ViaLight kit (BioWhittaker) according to the manufacturer's instructions. S1P and LPA were purchased from Avanti Polar Lipids, Inc.
(§3) In assays including pertussis toxin, the toxin was added at 100 ng/ml 24 hours prior to the second passaging. New toxin was added at the same dose in combination with S1P or LPA to the cells and assayed as described above.
In the experiment analysing the combinatory effect of S1P and EGF, S1P at 100 nM was co-incubated with 0.1 nM EGF for 3 days.

[2] = system: adult mouse NSC; test: 3H-thymidine incorporation into DNA of NSC; type: cell-based
Procedure: as §1, §2, §3
To determine thymidine incorporation into DNA, neurospheres were split and seeded in Neurosphere medium as single cells in 96-well plates, 10 000 cells/well. Substances to be measured were added in quadruplicates and cells were incubated at 37° C. for 3 days. 3H-thymidine, 10 uCi/ml, was present the last 24 hours. Cells were harvested on to a filter paper and radioactivity was measured. 3H-thymidine (6,7 Ci/mmol) was from PerkinElmer.

[3] = system: new born cells in the caudate putamen; test: Intracerebroventricular infusion, BrdU-positive cells in caudate putamen; type: in vivo, rat; conditions: S1P 10 μM pump concentration, lateral ventricle, 0.5 μl/hr for 14 days
Procedure: Arrival of animals: 06.1102 (30 animals), 13.11.02 (30 animals) and 20.11.02 (10 animals): Male Wistar rats, ca. 270 g, Harlan-Winkelmann Germany;
Brain infusion kit II; Alzet osmotic mini-pump model 2002 (volume of pump: 200 μl, plus ca. 30-50 μl volume in tubing/flow-moderator; pumping rate: 0.5 μl/h (=12 μl/d) for 14 days; vehicle solution aCSF (artificial cerebrospinal fluid: 148 mM NaCl, 3 mM KCl, 1.4 mM CaCl2, 0.8 mM MgCl2, 1.5 mM Na2HPO4, 0.2 mM NaH2PO4, pH 7.4, sterile filtration; stored at −20° C.
provided as 1 mg solid, dissolved in DMSO, aliquoted and kept in freezer, thawed and added aCSF to make pump solution, 0.1% DMSO maximum. […]
Quantification in ipsilateral hemisphere: two slices (see point “Immunohistochemistry”) counting 2× one box (0.25 mm^2) in caudate putamen on each section.
S1P (10 μM pump concentration) or vehicle, and BrdU (1 mg/ml pump concentration) was infused into the lateral ventricle of adult male Wistar rats at a rate of 0.5 μl/hr for 14 days. […] BrdU incorporated into the nuclei of proliferating cells was detected by DAB-immunohistochemistry. […] For quantification (FIG. 10), sections were taken in duplicate for each animal and counted manually (see above Methods). Results are expressed as the mean±SEM number of BrdU positive cells/0.25 mm^2 (S1P n=8) (Vehicle n=12) (**p<0.005 relative to Vehicle).

[4] = in vitro EC50 listed in the handling of substances table
[5] = system: primary adult mouse NSC; test: Primary NSC proliferation and neurosphere formation without growth factors; type: cell-based; conditions: LPA 10 μM, no EGF, 7 days (FIG. 9)
Procedure: as §1
Anterior lateral wall of the lateral ventricle was dissociated as described in the Methods above (Method A), and the cells resuspended in Neurosphere medium without EGF. The cell suspension was divided into a 24-well plate with triplicates of control (no addition), LPA treated and EGF (1 nM) treated cells. The final concentration of LPA was 10 μM. After 7 days the spheres were counted, inspected for growth and morphology and photographed using a Nikon Eclipse TE300 microscope and Nikon Spot Insight camera.

Row | Compound | intracellular ATP levels, and hence NSC number, factor alone [1] | intracellular ATP levels, and hence cell number, relative to control ([1]; S1P 1-100 nM, non-adherent conditions (FIG. 4A)) | incorporation of tritiated thymidine relative to control ([2]; S1P 1-100 nM, 3 days (FIG. 4B)) | BrdU labeling of cells in coronal sections through the caudate putamen relative to vehicle ([3]; adult male Wistar rats) | number of BrdU positive cells/0.25 mm^2 (new born cells) in the caudate putamen relative to vehicle ([3]; n=8, p<0.005 (FIG. 10)) | pEC50 [4] | intracellular ATP levels, and hence cell number, relative to control ([1]; LPA, two phases: 1-10 nM and 0.11-10 μM, non-adherent conditions (FIG. 5A)) | incorporation of tritiated thymidine relative to control ([2]; LPA 4 nM (FIG. 5B)) | incorporation of tritiated thymidine relative to control ([2]; LPA 10 nM (FIG. 5B)) | incorporation of tritiated thymidine relative to control ([2]; LPA 10 μM (FIG. 5B)) | sizes and number of neurospheres versus control [5]
1 | EGF: mitogen (growth factor) for neural progenitors, from BD Biosciences | increased |  |  |  |  |  |  |  |  |  | 
2 | CCCCCCCCCCCCC/C=C/[C@@H](O)[C@@H](N)COP(=O)(O)O [S1P, sphingosine-1-phosphate] | increased | statistically significant increase | Greater incorporation | substantially greater number | significant increase | 7.52 |  |  |  |  | 
3 | lysophosphatidic acid [LPA] |  |  |  |  |  |  | statistically significant increases | Greater incorporation | no significant incorporation | Greater incorporation | observably greater
